Patent US11376253B2, “Agent for treating nocturnal pollakiuria” (KYORIN PHARMACEUTICAL CO., LTD., priority 2017, dated 2022)

How the values were obtained:
Japanese OAB patients [1] = assay: twelve-week randomized, double-blind, placebo-controlled, parallel-group study of nocturnal pollakiuria in OAB patients; assay type: in vivo, human; settings: for Least squares mean of the amount of change from baseline in the first voided volume at night / Least squares mean of the amount of change from baseline in the time to first awakening (HUS) / Least squares mean of the amount of change from baseline in the single voided volume at night: patients with frequency of urination at night one or more times per day at baseline; for Least squares mean of the amount of change from baseline in the first voided volume at night: placebo 24.80 mL; for Least squares mean of the amount of change from baseline in the time to first awakening (HUS): placebo 65.08 minutes; for Least squares mean of the amount of change from baseline in the single voided volume at night: placebo +19.42 mL
Japanese OAB patients [2] = assay: as above; assay type: in vivo, human; settings: for Difference in amount of change (vibegron group − placebo group), least squares mean (95% confidence interval) / Amount of change from baseline in the frequency of urination at night, least squares mean (95% confidence interval): 12 weeks
Method: The efficacy of vibegron on nocturnal pollakiuria in OAB patients was evaluated in a twelve-week randomized, double-blind, placebo-controlled, parallel-group study.
Japanese OAB patients received either vibegron (50 mg/day or 100 mg/day) or a placebo for 12 weeks. Both 50 mg/day of vibegron and 100 mg/day of vibegron were orally administered in the form of a tablet once daily after breakfast. […] There was no difference among the dose groups in terms of subject background such as gender, age, and BMI.
The therapeutic effect of vibegron on nocturnal pollakiuria in OAB patients was evaluated based on an average frequency of urination at night, which was determined by using a urination diary to investigate the frequency of urination for three days prior to visits. In this context, nighttime is defined as the period of time between when one goes to bed to sleep and when one wakes up and gets out of bed. Constrained longitudinal data analysis model (cLDA) was used for statistical analysis to estimate the least squares mean and the two-sided 95% confidence interval of each group. Furthermore, the cLDA method was used to estimate the least squares mean difference at evaluation times between the 50 mg or 100 mg vibegron groups and the placebo group and the two-sided 95% confidence intervals thereof, thereby testing the least squares mean difference compared with placebo.
Numerical values in Table 2 represent the average of the frequency of urination at night at baseline (before drug administration), the least squares mean of the amount of change from baseline in the average frequency of urination at night after 12 weeks of administration, the least squares mean of difference in the amount of change between the vibegron groups and the placebo group, and p-values. In this regard, when the amount of change is less than 0, the smaller value represents a greater therapeutic effect. […] “Patients whose frequency of urination at night is not zero at baseline” are represented as a main subject population, and other “patients whose frequency of urination at night is one or more times at baseline” and “patients whose frequency of urination at night is two or more times at baseline” are represented as populations who have more prominent symptoms of nocturnal pollakiuria. FIG. 1 is a graph in which the numerical values represent the least squares mean (ΔLSmean) of the amount of change from baseline in the frequency of urination at night after 12 weeks of administration.

[3] = 50 mg and 100 mg groups, patients with nocturnal pollakiuria with nocturnal polyuria, one or more times per day at baseline
[4] = 50 mg and 100 mg groups, patients with nocturnal pollakiuria without nocturnal polyuria, one or more times per day at baseline
[5] = 50 mg/day oral, patients whose frequency of urination at night is two or more times at baseline
[6] = 100 mg/day oral, patients whose frequency of urination at night is not zero at baseline

In the case of `O=C(Nc1ccc(C[C@@H]2CC[C@H]([C@H](O)c3ccccc3)N2)cc1)[C@@H]1CCc2nccc(=O)n21` [Vibegron, (6S)—N-[4-({(2S,5R)-5-[(R)-hydroxy(phenyl)methyl]pyrrolidin-2-yl}methyl)phenyl]-4-oxo-4,6,7,8-tetrahydropyrrolo[1,2-a]pyrimidine-6-carboxamide], the “Single voided volume at night compared with the placebo group” value (Japanese OAB patients [1]; [3]) is reported as “significantly increased”, the “Frequency of urination at night compared with the placebo group” value (Japanese OAB patients [1]; [4]) is reported as “significantly reduced” and the “Single voided volume at night compared with the placebo group” value (Japanese OAB patients [1]; [4]) is reported as “significantly increased”. For the same molecule, the “Amount of change from baseline in the frequency of urination at night, least squares mean (95% confidence interval)” value (Japanese OAB patients [1]; 50 mg/day oral, 12 weeks, patients whose frequency of urination at night is not zero at baseline) was −0.58 (−0.65, −0.51), the “Amount of change from baseline in the frequency of urination at night, least squares mean (95% confidence interval)” value (Japanese OAB patients [1]; 50 mg/day oral, 12 weeks, patients whose frequency of urination at night is one or more times at baseline) was −0.74 (−0.82, −0.65) and the “Least squares mean of the amount of change from baseline in the first voided volume at night” value (Japanese OAB patients [1]; 50 mg/day, 12 weeks) was 48.71 mL. The “Least squares mean of the amount of change from baseline in the time to first awakening (HUS)” value (Japanese OAB patients [1]; 50 mg/day, 12 weeks) was 81.79 min, the “Least squares mean of the amount of change from baseline in the single voided volume at night” value (Japanese OAB patients [1]; 50 mg/day, 12 weeks) was “+47.85 mL” and the “Amount of change from baseline in the frequency of urination at night, least squares mean (95% confidence interval)” value (Japanese OAB patients [1]; 100 mg/day oral, 12 weeks, patients whose frequency of urination at night is one or more times at baseline) was −0.78 (−0.87, −0.70). The “Difference in amount of change (vibegron group − placebo group), least squares mean (95% confidence interval)” value (Japanese OAB patients [1]; 100 mg/day oral, 12 weeks, patients whose frequency of urination at night is two or more times at baseline) was −0.31 (−0.55, −0.08), the “Least squares mean of the amount of change from baseline in the first voided volume at night” value (Japanese OAB patients [1]; 100 mg/day, 12 weeks) was 71.42 mL and the “Least squares mean of the amount of change from baseline in the time to first awakening (HUS)” value (Japanese OAB patients [1]; 100 mg/day, 12 weeks) was 90.95 min. For the same molecule, the “Least squares mean of the amount of change from baseline in the single voided volume at night” value (Japanese OAB patients [1]; 100 mg/day, 12 weeks) was “+58.14 mL”, the “Frequency of urination at night compared with the placebo group” value (Japanese OAB patients [2]; [3]) was “reduced in the 50 mg vibegron group and the 100 mg vibegron group compared with the placebo group but the difference was not significant” and the “Difference in amount of change (vibegron group − placebo group), least squares mean (95% confidence interval)” value (Japanese OAB patients [2]; 50 mg/day oral, patients whose frequency of urination at night is not zero at baseline) was −0.11 (−0.21, −0.02). The “Difference in amount of change (vibegron group − placebo group), least squares mean (95% confidence interval)” value (Japanese OAB patients [2]; 50 mg/day oral, patients whose frequency of urination at night is one or more times at baseline) was −0.16 (−0.28, −0.04), the “Amount of change from baseline in the frequency of urination at night, least squares mean (95% confidence interval)” value (Japanese OAB patients [2]; [5]) was −1.00 (−1.17, −0.83) and the “Difference in amount of change (vibegron group − placebo group), least squares mean (95% confidence interval)” value (Japanese OAB patients [2]; [5]) was −0.15 (−0.38, 0.08). The “Amount of change from baseline in the frequency of urination at night, least squares mean (95% confidence interval)” value (Japanese OAB patients [2]; [6]) was −0.62 (−0.70, −0.55), the “Difference in amount of change (vibegron group − placebo group), least squares mean (95% confidence interval)” value (Japanese OAB patients [2]; [6]) was −0.16 (−0.25, −0.06) and the “Difference in amount of change (vibegron group − placebo group), least squares mean (95% confidence interval)” value (Japanese OAB patients [2]; 100 mg/day oral, patients whose frequency of urination at night is one or more times at baseline) was −0.21 (−0.33, −0.09). The “Amount of change from baseline in the frequency of urination at night, least squares mean (95% confidence interval)” value (Japanese OAB patients [2]; 100 mg/day oral, patients whose frequency of urination at night is two or more times at baseline) was −1.16 (−1.34. −0.99).
